Measured values taken from patent US7928078B2, “Conjugates of immune cell specific macrolide compounds with anti-inflammatory compounds for improved cellular targeting of anti-inflammatory therapy” (GlaxoSmithKline Istrazivacki Centar Zagreb D.O.O., priority 2001, dated 2011).

Columns and labels:
[1] = molecular target: T1, alpha isoform of human glucocorticoid receptor (Homo sapiens, UniProt P04150); experiment: Assay of binding to the human glucocorticoid receptor ([3H] dexamethasone competition in transfected COS-1 cells); details: 24 nM [3H] dexamethasone
T1 construct: expressed in transfected cells; host or cells: COS-1 cells, transient transfection with pcDNA3.1 hygro(+) carrying the GR alpha cDNA
T1 sequence (P04150 1-777): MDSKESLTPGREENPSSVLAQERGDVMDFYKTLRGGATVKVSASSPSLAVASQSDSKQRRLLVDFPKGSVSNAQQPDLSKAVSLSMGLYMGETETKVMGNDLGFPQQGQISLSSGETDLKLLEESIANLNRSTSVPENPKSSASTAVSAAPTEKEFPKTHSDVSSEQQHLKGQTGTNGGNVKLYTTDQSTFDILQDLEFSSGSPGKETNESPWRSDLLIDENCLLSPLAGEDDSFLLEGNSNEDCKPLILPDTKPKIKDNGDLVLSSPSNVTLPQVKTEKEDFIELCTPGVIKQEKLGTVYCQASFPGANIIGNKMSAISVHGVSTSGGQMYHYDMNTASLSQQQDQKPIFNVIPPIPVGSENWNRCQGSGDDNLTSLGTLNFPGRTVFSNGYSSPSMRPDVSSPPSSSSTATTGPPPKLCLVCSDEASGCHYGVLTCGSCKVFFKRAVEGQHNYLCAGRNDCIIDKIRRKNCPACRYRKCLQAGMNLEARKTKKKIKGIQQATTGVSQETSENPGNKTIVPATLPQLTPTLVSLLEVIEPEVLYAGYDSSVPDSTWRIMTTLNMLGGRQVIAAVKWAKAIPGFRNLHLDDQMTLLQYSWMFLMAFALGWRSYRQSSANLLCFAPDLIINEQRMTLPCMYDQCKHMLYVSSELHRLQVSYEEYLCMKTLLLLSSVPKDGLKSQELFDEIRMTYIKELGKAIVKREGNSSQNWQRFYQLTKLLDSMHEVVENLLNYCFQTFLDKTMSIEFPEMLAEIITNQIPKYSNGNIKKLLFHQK
Text: Assay of Binding to the Human Glucocorticoid Receptor
The gene for alpha isoform of human glucocorticoid receptor was cloned by reverse polymerase chain reaction. The total RNA was isolated from human peripheral blood lymphocites according to the instructions of the manufacturer (Qiagen), transcripted into cDNA with AMV reverse transcriptase (Roche) and the gene was multiplied by specific primers
The obtained reaction product was cloned into XhoI/BamHI site of Bluescript KS plasmid (Stratagene), subjected to sequencing by dideoxy fluorescent method with M13 and M13 rev primers (Mycrosynth) and then it was cloned into XhoI/BamHI site of pcDNA3.1 hygro(+)plasmid (Invitrogen). 1×10^5 COS-1 cells were seeded onto a 12-well plate (Falcon) in DMEM medium (Life Technologies) with 10% FBS (Biowhitaker) and cultivated up to a 70% confluence at 37° C. in an atmosphere with 5% CO2. The medium was removed and 1 μg of DNA, 7 μl of PLUS reagent and 2 μl of Lipofectamine (Life Technologies) in 500 μl DMEM were added per well. The cells were incubated at 37° C. in an atmosphere with 5% CO2 and after 5 hours the same volume of 20% FBS/DMEM was added. After 24 hours the medium was completely changed. 48 hours after the transfection, the test compounds in different concentrations and 24 nM [^3H] dexamethasone (Pharmacia) in DMEM medium were added. The cells were incubated for 90 minutes at 37° C. in an atmosphere with 5% CO2, washed three times with PBS buffer (Sigma), cooled to 4° C. (pH=7.4) and then lyzed in Tris buffer (pH=8.0) (Sigma) with 0.2% SDS (Sigma). After the addition of UltimaGold XR (Packard) scintillation liquid, the residual radioactivity was read in a Tricarb (Packard) β-scintillation counter.

[2] = system: mouse T-cell hybridoma 13; experiment: Assay of inhibition of mouse T-cell hybridoma 13 proliferation as a result of apoptose induction; type: cell-based; details: [3H] thymidine incorporation
Experimental: Assay of Inhibition of Mouse T-Cell Hybridoma 13 Proliferation as a Result of Apoptose Induction
In a 96-well plate triplicates of test steroid dilution in RPMI medium (Immunoloski zavod) with […] were performed. To the solutions of compounds 20 000 cells per well were added and incubated overnight at 37° C. in an atmosphere with 5% CO2, then 1 μCi of [^3H] thymidine (Pharmacia) was added and it was incubated for additional 3 hours. The cells were harvested by sucking over GF/C filter (Packard). Onto each well 30 μl of Microscynt O scintillation liquid (Packard) were added and the incorporated radioactivity was measured on a β-scintillation counter (Packard). The specifity of apoptose induction by glucocorticoids was proven by antagonising the proliferation inhibition with mifepristone (Sigma).

[3] = system: interleukin-2 production induced by the stimulation via CD3 receptor; experiment: Assay of inhibition of interleukin-2 production; type: cell-based, mouse
Experimental: Assay of Inhibition of Interleukin-2 Production
Onto a 96-well plate (Nunc) 15 ng of 2C11 antibodies (Pharmingen) per well were added and left to adsorb in PBS buffer (pH=7.4) overnight at 4° C. PBS was removed, the plate was washed with RPMI medium and then 50,000 cells per well were added and incubated in the medium with and without a dilution of the test compounds. The concentration of IL-2 in the supernatant was measured by ELISA specific for mouse IL-2 (R&D Systems).

[4] = system: OVA-induced lung eosinophilia; experiment: Model of lung eosinophilia in mice; type: in vivo, Balb/C mice; details: daily i.n. or i.p., different doses, 48 hours after OVA, t-test, p<0.05
Experimental: Model of Lung Eosinophilia in Mice
Male Balb/C mice with a body weight of 20-25 g were randomly divided into groups. They were sensibilized by an i.p. injection of ovalbumine (OVA, Sigma) on zero day and on the fourteenth day. On the twentieth day the mice were subjected to a provocative test by i.n. application of OVA (positive control or test groups) or PBS (negative control). 48 hours after i.n. application of OVA, the animals were anesthetized and the lungs were rinsed with 1 ml of PBS. The cells were separated on Cytospin 3 cytocentrifuge (Shandon). The cells were stained in Diff-Quick (Dade) and the percentage of eozinophiles was determined by differential counting of at least 100 cells.
Fluticasone and beclomethasone were used as standard substances under positive and negative control.
The compounds were administered daily i.n. or i.p. in different doses 2 days before provocative test and up to the completion of the test.

CHO and COS-1 cells = experiment: Assay of steroid introduction into cells; type: cell-based; details: 1 μM radioactive compound, 90 minutes, 37° C.
Experimental: Assay of Steroid Introduction into Cells
CHO and COS-1 cells were cultivated up to confluence in 75 cm^2 flasks in Hamm F 12 medium (Life Technologies) with 10% FBS (CHO) or in DMEM medium with 10% FBS (COS-1). 1 μM of radioactive compound 10 with total 2 μCi activity was added onto the cells and it was incubated for 90 minutes at 37° C. in an atmosphere with 5% CO2. The cell supernatant was collected, the cells were lysed and then the radioactivity in the cell lysate as well as in the cell supernatant was read.

[5] = Influence of compounds on the thymus weight; details: rats, s.c. implanted impregnated pellets, 7 days
Text: Influence of Compounds on the Thymus Weight
Male Sprague Dawley rats with a body weight of 200 g were randomly divided into groups of six animals. To anaesthetized animals sterilized weighed pellets of filter paper were implanted s.c. dorsally. The pellets in the control group were impregnated with acetone, whereas in the test groups they were impregnated either with the standard (prednisolone, Sigma) or with the compound 10. After 7 days the animals were put to sleep and their thymuses were isolated and weighed. The systemic effects were estimated by comparing the thymus weight in the test and control groups.

CC[C@H]1OC(=O)[C@H](C)[C@@H](O[C@@H]2C[C@](C)(OC)[C@H](O)C(C)O2)[C@H](C)[C@@H](O[C@@H]2O[C@H](C)C[C@@H](N(C)C)[C@H]2O)[C@](C)(O)C[C@@H](C)CN(CCCNC(=O)[C@@]2(O)[C@H](C)CC3C4C[C@H](F)C5=CC(=O)C=C[C@]5(C)[C@@]4(F)[C@@H](O)C[C@@]32C)[C@H](C)[C@@H](O)[C@]1(C)O (stereo partly drawn) [Compound 9]
competition with radioactive dexamethasone in the binding site on the glucocorticoid receptor [1]: able to compete with radioactive dexamethasone | inhibition of cell hybridoma 13 proliferation [2]: demonstrated an inhibition | inhibition of interleukin-2 production [3]: demonstrate an inhibition | number of eosinophiles in the lung rinse with regard to the positive control [4]: statistically significantly (t-test, p<0.05) reduced | melting point: 169 °C

CC[C@H]1OC(=O)[C@H](C)[C@@H](O[C@@H]2C[C@](C)(OC)[C@H](O)C(C)O2)[C@H](C)[C@@H](O[C@@H]2O[C@H](C)C[C@@H](N(C)C)[C@H]2O)[C@](C)(O)C[C@@H](C)CN(CCCNC(=O)[C@@]2(O)[C@H](C)CC3C4CCC5=CC(=O)C=C[C@]5(C)[C@@]4(F)[C@@H](O)C[C@@]32C)[C@H](C)[C@@H](O)[C@]1(C)O (stereo partly drawn) [Compound 10]
competition with radioactive dexamethasone in the binding site on the glucocorticoid receptor [1]: able to compete with radioactive dexamethasone | accumulation in the cells versus cell supernatant (CHO and COS-1 cells): able to accumulate in the cells in a greater concentration than in the supernatant | inhibition of cell hybridoma 13 proliferation [2]: demonstrated an inhibition | inhibition of interleukin-2 production [3]: demonstrate an inhibition | number of eosinophiles in the lung rinse with regard to the positive control [4]: statistically significantly (t-test, p<0.05) reduced | melting point: 170 to 175 °C

C[C@]12C=CC(=O)C=C1CC[C@@H]1[C@@H]2[C@@H](O)C[C@@]2(C)[C@H]1CC[C@]2(O)C(=O)CO [standard, prednisolone]
effect on thymus weights with regard to the control [5]: statistically significantly reduced the thymus weights
